Consider 17 molecules from patent US8334287B2 (Hoffmann-La Roche Inc., priority 2009, dated 2012).

The structures appear in SMILES notation.

The target of this assay is T1, human mGlu5a receptor (Homo sapiens, UniProt P41594).
T1 construct: expressed in transfected cells; host or cells: EBNA cells (transient transfection); membranes prepared from them
T1 sequence (P41594 21-1180 isoform P41594-2 limits assumed): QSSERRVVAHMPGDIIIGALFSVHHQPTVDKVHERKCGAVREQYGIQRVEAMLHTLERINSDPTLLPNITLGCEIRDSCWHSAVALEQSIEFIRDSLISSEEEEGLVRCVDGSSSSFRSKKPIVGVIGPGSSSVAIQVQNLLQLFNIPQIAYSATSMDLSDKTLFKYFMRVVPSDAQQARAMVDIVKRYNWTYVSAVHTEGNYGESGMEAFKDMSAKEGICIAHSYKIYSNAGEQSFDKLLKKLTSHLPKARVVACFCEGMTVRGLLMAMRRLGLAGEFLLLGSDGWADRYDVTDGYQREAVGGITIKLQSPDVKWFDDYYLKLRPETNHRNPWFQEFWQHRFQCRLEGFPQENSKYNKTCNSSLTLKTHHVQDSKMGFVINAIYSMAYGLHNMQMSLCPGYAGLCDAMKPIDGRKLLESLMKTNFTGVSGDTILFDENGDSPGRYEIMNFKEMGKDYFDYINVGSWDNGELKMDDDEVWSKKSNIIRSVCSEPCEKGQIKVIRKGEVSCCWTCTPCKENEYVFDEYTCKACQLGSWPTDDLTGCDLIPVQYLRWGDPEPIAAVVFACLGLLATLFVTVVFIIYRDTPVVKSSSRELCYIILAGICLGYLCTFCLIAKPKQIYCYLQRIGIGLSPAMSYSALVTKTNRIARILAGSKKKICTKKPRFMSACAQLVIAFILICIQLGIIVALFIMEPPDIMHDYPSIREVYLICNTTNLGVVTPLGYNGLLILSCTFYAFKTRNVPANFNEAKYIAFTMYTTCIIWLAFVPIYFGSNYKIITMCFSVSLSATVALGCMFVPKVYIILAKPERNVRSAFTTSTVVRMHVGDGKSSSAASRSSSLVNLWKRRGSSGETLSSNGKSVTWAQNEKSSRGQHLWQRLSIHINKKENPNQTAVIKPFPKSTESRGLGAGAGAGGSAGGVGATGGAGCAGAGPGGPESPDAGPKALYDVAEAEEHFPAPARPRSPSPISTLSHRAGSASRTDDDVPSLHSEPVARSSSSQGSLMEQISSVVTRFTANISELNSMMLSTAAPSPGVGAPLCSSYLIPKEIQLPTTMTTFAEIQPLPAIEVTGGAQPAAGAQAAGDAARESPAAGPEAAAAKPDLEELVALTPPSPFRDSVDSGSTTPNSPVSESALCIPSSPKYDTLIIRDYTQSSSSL
Nature of the assay: mGlu5a receptor binding, displacement of [3H]MPEP. The conditions noted are these: competing radioligand [3H]MPEP; human mGlu5a receptor transiently transfected into EBNA cells; Ki=IC50/1+L/Kd. As to the method:
For binding experiments, cDNA encoding human mGlu5a receptor was transiently transfected into EBNA cells using a procedure described by E.-J. Schlaeger and K. Christensen (Cytotechnology 1998, 15, 1-13). For functional assays, [Ca^2+]i measurements were performed largely as described previously (Porter et al., Br J. Pharmacol 1999, 128, 13-20) on stably expressed recombinant human mGlu 5a receptors in HEK-293 cells. The cells were dye loaded using Fluo 4-AM (purchased from Molecular Probes, 2 μM final concentration) [Ca^2+]i measurements were performed using a fluorometric imaging plate reader (FLIPR, Molecular Devices Corporation, La Jolla, Calif., USA). Antagonist evaluation was performed following a 5 minute preincubation with the test compounds followed by the addition of a submaximal addition of agonist.
The inhibition (antagonists) curves were fitted with a four parameter logistic equation giving IC50, and Hill coefficient using the iterative non linear curve fitting software Xcel fit.
The Ki values of the compounds tested are given. The Ki value is defined by the following formula: Ki=IC50/1+L/Kd in which the IC50 values are those concentrations of the compounds tested in which causes 50% inhibition of the competing radioligand ([^3H]MPEP). [L] is the concentration of radioligand used in the binding experiment and the Kd value of the radioligand is empiracally determined for each batch of membranes prepared.
One may read the Ki as the equilibrium dissociation constant of an inhibitor or competing ligand from its target. Read a low Ki as tighter binding. `Cc1nc(C#Cc2cccc(Cl)c2)cn1-c1cc[nH]c(=O)c1` [Example 1, 4-[4-(3-chloro-phenylethynyl)-2-methyl-imidazol-1-yl]-1H-pyridin-2-one] yielded an inhibition constant (Ki) of 40 nM.

On to `Cc1nc(C#Cc2cccc(Cl)c2)cn1-c1ccn(C)c(=O)c1` [Example 2, 4-[4-(3-chloro-phenylethynyl)-2-methyl-imidazol-1-yl]-1-methyl-1H-pyridin-2-one], for which the inhibition constant Ki turned out to be 69 nM.

On to `CCn1ccc(-n2cc(C#Cc3cccc(Cl)c3)nc2C)cc1=O` [Example 3, 4-[4-(3-chloro-phenylethynyl)-2-methyl-imidazol-1-yl]-1-ethyl-1H-pyridin-2-one], for which the affinity, expressed as Ki, was 39 nM.

For the molecule `Cc1nc(C#Cc2cccc(Cl)c2)cn1-c1ccn(CCO)c(=O)c1` [Example 4, 4-[4-(3-chloro-phenylethynyl)-2-methyl-imidazol-1-yl]-1-(2-hydroxy-ethyl)-1H-pyridin-2-one], the affinity, expressed as Ki, was 345 nM.

In turn, `COCCn1ccc(-n2cc(C#Cc3cccc(Cl)c3)nc2C)cc1=O` [Example 5, 4-[4-(3-chloro-phenylethynyl)-2-methyl-imidazol-1-yl]-1-(2-methoxy-ethyl)-1H-pyridin-2-one] showed a Ki of 44 nM.

Take `Cc1nc(C#Cc2ccnc(Cl)c2)cn1-c1cc[nH]c(=O)c1` [Example 6, 4-[4-(2-chloro-pyridin-4-ylethynyl)-2-methyl-imidazol-1-yl]-1H-pyridin-2-one]: the affinity corresponds to a Ki of 146 nM.

`Cc1nc(C#Cc2ccnc(Cl)c2)cn1-c1ccn(C)c(=O)c1` [Example 7, 4-[4-(2-chloro-pyridin-4-ylethynyl)-2-methyl-imidazol-1-yl]-1-methyl-1H-pyridin-2-one] showed a Ki of 180 nM.

Molecule `Cc1cccc(C#Cc2cn(-c3cc[nH]c(=O)c3)c(C)n2)c1` [Example 8, 4-(2-Methyl-4-m-tolylethynyl-imidazol-1-yl)-1H-pyridin-2-one] had a Ki of 113 nM.

As for `Cc1cccc(C#Cc2cn(-c3ccn(C)c(=O)c3)c(C)n2)c1` [Example 9, 1-Methyl-4-(2-methyl-4-m-tolylethynyl-imidazol-1-yl)-1H-pyridin-2-one], the affinity, expressed as Ki, was 42 nM.

Regarding `CCn1ccc(-n2cc(C#Cc3cccc(C)c3)nc2C)cc1=O` [Example 10, 1-Ethyl-4-(2-methyl-4-m-tolylethynyl-imidazol-1-yl)-1H-pyridin-2-one], the Ki came to 75 nM.

`Cc1cccc(C#Cc2cn(-c3ccn(CCO)c(=O)c3)c(C)n2)c1` [Example 11, 1-(2-Hydroxy-ethyl)-4-(2-methyl-4-m-tolylethynyl-imidazol-1-yl)-1H-pyridin-2-one] had a Ki of 265 nM.

For the molecule `COCCn1ccc(-n2cc(C#Cc3cccc(C)c3)nc2C)cc1=O` [Example 12, 1-(2-Methoxy-ethyl)-4-(2-methyl-4-m-tolylethynyl-imidazol-1-yl)-1H-pyridin-2-one], affinity was put at a Ki of 40 nM.

In turn, `CCOC(=O)Cn1ccc(-n2cc(C#Cc3cccc(C)c3)nc2C)cc1=O` [Example 13, [4-(2-Methyl-4-m-tolylethynyl-imidazol-1-yl)-2-oxo-2H-pyridin-1-yl]-acetic acid ethyl ester] showed a Ki of 94 nM.

As for `Cc1nc(C#Cc2cccc(Cl)c2)cn1-c1cccc(O)n1` [Example 14, 6-[4-(3-chloro-phenylethynyl)-2-methyl-imidazol-1-yl]-pyridin-2-ol], the Ki is 42 nM.

In the case of `Cc1nc(C#Cc2cccc(Cl)c2)cn1-c1cccc(=O)n1C` [Example 15, 6-[4-(3-chloro-phenylethynyl)-2-methyl-imidazol-1-yl]-1-methyl-1H-pyridin-2-one], the Ki is 154 nM.

Molecule `Cc1nc(C#Cc2cccc(Cl)c2)cn1-c1cncc(=O)[nH]1` [Example 16, 6-[4-(3-chloro-phenylethynyl)-2-methyl-imidazol-1-yl]-1H-pyrazin-2-one] gave a Ki of 659 nM.

With `Cc1nc(C#Cc2ccnc(Cl)c2)cn1-c1cccc(O)n1` [Example 17, 6-[4-(2-chloro-pyridin-4-ylethynyl)-2-methyl-imidazol-1-yl]-pyridin-2-ol], the Ki was determined as 144 nM.
